From patent US20210355104A1, “ADENOSINE RECEPTOR BINDING COMPOUNDS” (Nikang Therapeuticsm Inc., priority 2018, published 2021)
“And” between values parts separate entries of the source, which are not always exact repeats. Equal entries are not always repeated.

How the values were obtained:
Adenosine A2A receptor [1] = molecular target: T1, Adenosine A2A receptor (Homo sapiens, UniProt P29274); assay: cAMP assay in 293A cells stably expressing the adenosine A2A receptor (CGS21680 stimulation, HTRF); format: cell-based; set-up: expressed in transfected cells; host or cells: 293A cells (Invitrogen, Cat# R705-07) infected with A2A-expressing lentivirus (custom packaged by Biosettia), puromycin selected; conditions: 293A-A2AR cells, 0.1% BSA, values separated by / are repeat determinations
T1 sequence (P29274 whole entry): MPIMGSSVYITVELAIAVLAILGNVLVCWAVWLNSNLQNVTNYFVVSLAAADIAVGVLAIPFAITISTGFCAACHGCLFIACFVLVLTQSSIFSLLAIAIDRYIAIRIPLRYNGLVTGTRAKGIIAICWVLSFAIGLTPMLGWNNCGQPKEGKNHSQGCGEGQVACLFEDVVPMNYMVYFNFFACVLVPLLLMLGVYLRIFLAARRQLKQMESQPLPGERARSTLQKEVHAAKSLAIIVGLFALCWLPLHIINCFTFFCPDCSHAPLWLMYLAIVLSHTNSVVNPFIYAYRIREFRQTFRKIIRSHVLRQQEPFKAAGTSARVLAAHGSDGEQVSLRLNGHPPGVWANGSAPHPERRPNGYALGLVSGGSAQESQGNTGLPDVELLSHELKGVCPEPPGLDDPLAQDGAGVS

Adenosine A2A receptor [2] = molecular target: T1, Adenosine A2A receptor; assay: Adenosine A2A receptor competitive binding assay (Tag-lite HTRF); conditions: Tag-lite adenosine A2A receptor ligand binding
Procedure: Adenosine A2A Receptor Competitive Binding Assay
The Tag-lite adenosine A2A receptor ligand binding assay is a homogeneous alternative to radioligand binding assay and developed by Cisbio (Bedford, Mass.). We carried out this assay following Cisbio's instructions with minor modification. Pre-transfected, fluorescent donor-labelled cells (Cisbio Cat#: C1TT1A2A, 200 testes) was stored at −80° C. and thawed right before use. Cells were washed once with 5 ml TLB and gently resuspended in 2 ml TLB. 4 μl suspended cells was dispensed into each well of white low-volume 384-well plate (Greiner Bio-One). Serial dilutions of compounds were prepared in Tag-lite buffer (TLB, Cisbio Cat #: LABMED) to a DMSO concentration of 0.6%. After adding 4 μl of compound dilutions to each well, 4 μl60 nM Adenosine A2A receptor red antagonist fluorescent ligand (Cisbio Cat #: L0058RED) was dispensed to each well. The 384-well assay plate was centrifuged briefly and incubated at room temperature for 2 h. HTRF signals were measured using CIARIOstar plate reader (BMG Labtech).

[3] = 8 nM CGS, read-out: cAMP (nM) 0.1% BSA, 8 nM CGS
[4] = 1 uM CGS, read-out: cAMP (nM) 0.1% BSA, 1 uM CGS
[5] = 2 h room temperature, values separated by / are repeat determinations

IC50 (Adenosine A2A receptor [1]; [3])	IC50 (Adenosine A2A receptor [1]; [4]) [nM]	IC50 (Adenosine A2A receptor [2]; [5])	IC50 (Adenosine A2A receptor [2]; HTRF) [nM]	Structure (SMILES)
40 nM and 17 nM	4040	11.1 nM	–	CNC(=O)COc1nc(N)nc(-c2ccccc2)c1-c1cc(C)nc(C(F)(F)F)c1 [Example 1, 2-((2-amino-5-(2-methyl-6-(trifluoromethyl)pyridin-4-yl)-6-phenylpyrimidin-4-yl)oxy)-N-methylacetamide]
6.8 nM and 3.4 nM	–	30.5 nM	–	Cc1cc(-c2c(OCC(=O)N(C)C)nc(N)nc2-c2ccccc2)cc(C(F)(F)F)n1 [Example 2, 2-((2-amino-5-(2-methyl-6-(trifluoromethyl)pyridin-4-yl)-6-phenylpyrimidin-4-yl)oxy)-N,N-dimethylacetamide]
482 nM and 288 nM	23100	139 nM	–	Cc1cc(-c2c(NCc3cccc(CO[C@H]4CCOC4)n3)nc(N)nc2-c2ccccc2)cc(C(F)(F)F)n1 [Example 4, (S)-5-(2-methyl-6-(trifluoromethyl)pyridin-4-yl)-6-phenyl-N4-((6-(((tetrahydrofuran-3-yl)oxy)methyl)pyridin-2-yl)methyl)pyrimidine-2,4-diamine]
11.5 nM	–	8.97 nM	–	Cc1cc(-c2c(OCc3cccc(CO[C@H]4CCOC4)n3)nc(N)nc2-c2ccccc2)cc(C(F)(F)F)n1 [Example 5, (S)-5-(2-methyl-6-(trifluoromethyl)pyridin-4-yl)-4-phenyl-6-((6-(((tetrahydrofuran-3-yl)oxy)methyl)pyridin-2-yl)methoxy)pyrimidin-2-amine]
183 nM	–	74.3 nM	–	Cc1cc(-c2c(OCCCN3CCN(c4ccc(F)cc4F)CC3)nc(N)nc2-c2ccccc2)cc(C(F)(F)F)n1 [Example 6, 4-(3-(4-(2,4-difluorophenyl)piperazin-1-yl)propoxy)-5-(2-methyl-6-(trifluoromethyl)pyridin-4-yl)-6-phenylpyrimidin-2-amine]
380 nM	–	58 nM	–	Cc1cc(-c2c(OCc3cccc(CO[C@H]4CCOC4)n3)nc(N)nc2-c2ccc(C)o2)cc(C(F)(F)F)n1 [Example 7, (S)-5-(2-methyl-6-(trifluoromethyl)pyridin-4-yl)-4-(5-methylfuran-2-yl)-6-((6-(((tetrahydrofuran-3-yl)oxy)methyl)pyridin-2-yl)methoxy)pyrimidin-2-amine]
7.4 nM and 7.7 nM	–	10.2 nM and 18 nM	–	Cc1cc(-c2c(OCCc3ccccc3)nc(N)nc2-c2ccccc2)cc(C(F)(F)F)n1 [Example 8, 5-(2-methyl-6-(trifluoromethyl)pyridin-4-yl)-4-phenethoxy-6-phenylpyrimidin-2-amine]
8.8 nM and 51.5 nM and 24.2 nM	–	25.2 nM	–	Cc1cc(-c2c(OCC(=O)N3CCOCC3)nc(N)nc2-c2ccccc2)cc(C(F)(F)F)n1 [Example 10, 2-((2-amino-5-(2-methyl-6-(trifluoromethyl)pyridin-4-yl)-6-phenylpyrimidin-4-yl)oxy)-1-morpholinoethan-1-one]
3.2 nM	–	7.21 nM	–	CCN(CC)C(=O)COc1nc(N)nc(-c2ccco2)c1-c1cc(C)nc(C(F)(F)F)c1 [Example 11, 2-((2-amino-6-(furan-2-yl)-5-(2-methyl-6-(trifluoromethyl)pyridin-4-yl)pyrimidin-4-yl)oxy)-N,N-diethylacetamide]
2 nM	–	13.8 nM	–	CCN(CC)C(=O)COc1nc(N)nc(-c2ccc(C)o2)c1-c1cc(C)nc(C(F)(F)F)c1 [Example 12, 2-((2-amino-5-(2-methyl-6-(trifluoromethyl)pyridin-4-yl)-6-(5-methylfuran-2-yl)pyrimidin-4-yl)oxy)-N,N-diethylacetamide]
161 nM	–	303 nM	–	CCN(CC)C(=O)[C@@H](C)Oc1nc(N)nc(-c2ccccc2)c1-c1cc(C)nc(C(F)(F)F)c1 [Example 13, (R)-2-((2-amino-5-(2-methyl-6-(trifluoromethyl)pyridin-4-yl)-6-phenylpyrimidin-4-yl)oxy)-N,N-diethylpropanamide]
10000 nM	–	900 nM	–	CCN(CC)C(=O)[C@H](C)Oc1nc(N)nc(-c2ccccc2)c1-c1cc(C)nc(C(F)(F)F)c1 [Example 14, (S)-2-((2-amino-5-(2-methyl-6-(trifluoromethyl)pyridin-4-yl)-6-phenylpyrimidin-4-yl)oxy)-N,N-diethylpropanamide]
0.5 nM and 2.1 nM	–	3.2 nM	–	CCN(CC)C(=O)COc1nc(N)nc(-c2ccccc2)c1-c1cc(C)nc(C(F)F)c1 [Example 15, 2-((2-amino-5-(2-(difluoromethyl)-6-methylpyridin-4-yl)-6-phenylpyrimidin-4-yl)oxy)-N,N-diethylacetamide]
–	–	61 nM	–	Cc1cc(-c2c(OCC3CCN(S(C)(=O)=O)CC3)nc(N)nc2-c2ccc(F)cc2)cc(C(F)F)n1 [Example 96, 5-(2-(difluoromethyl)-6-methylpyridin-4-yl)-4-(4-fluorophenyl)-6-((1-(methylsulfonyl)piperidin-4-yl)methoxy)pyrimidin-2-amine]
–	–	66 nM	–	Cc1cc(-c2c(C(=O)NC3CCCc4cccnc43)nc(N)nc2-c2ccc(F)cc2)cc(C(F)F)n1 (centres unmarked) [Example 100, 2-amino-5-(2-(difluoromethyl)-6-methylpyridin-4-yl)-6-(4-fluorophenyl)-N-(5,6,7,8-tetrahydroquinolin-8-yl)pyrimidine-4-carboxamide]
–	–	70 nM	–	Cc1cc(-c2c(OCC(=O)N(C)C3COC3)nc(N)nc2-c2ccc(F)cc2)cc(C(F)F)n1 [Example 101, 2-((2-amino-5-(2-(difluoromethyl)-6-methylpyridin-4-yl)-6-(4-fluorophenyl)pyrimidin-4-yl)oxy)-N-methyl-N-(oxetan-3-yl)acetamide]
–	–	> 1000 nM	–	Cc1cc(-c2c(OCC3(O)CCOCC3)nc(N)nc2-c2ccc(F)cc2)cc(C(F)F)n1 [Example 104, 4-(((2-amino-5-(2-(difluoromethyl)-6-methylpyridin-4-yl)-6-(4-fluorophenyl)pyrimidin-4-yl)oxy)methyl)tetrahydro-2H-pyran-4-ol]
–	–	44 nM	–	Cc1cc(-c2c(OCC(=O)Nc3ccccn3)nc(N)nc2-c2ccc(F)cc2)cc(C(F)F)n1 [Example 107, 2-((2-amino-5-(2-(difluoromethyl)-6-methylpyridin-4-yl)-6-(4-fluorophenyl)pyrimidin-4-yl)oxy)-N-(pyridin-2-yl)acetamide]
–	–	222 nM	–	Cc1cc(-c2c(C(=O)NCc3cccc(C(C)C)n3)nc(N)nc2-c2ccc(F)cc2)cc(C(F)F)n1 [Example 108, 2-amino-5-(2-(difluoromethyl)-6-methylpyridin-4-yl)-6-(4-fluorophenyl)-N-((6-isopropylpyridin-2-yl)methyl)pyrimidine-4-carboxamide]
–	–	205 nM	–	Cc1cc(-c2c(C(=O)NCc3cccc(C4CC4)n3)nc(N)nc2-c2ccc(F)cc2)cc(C(F)F)n1 [Example 109]
–	–	250 nM	–	Cc1cc(-c2c(C(=O)NCc3cccc(C(C)(C)O)n3)nc(N)nc2-c2ccc(F)cc2)cc(C(F)F)n1 [Example 110, 2-amino-5-(2-(difluoromethyl)-6-methylpyridin-4-yl)-6-(4-fluorophenyl)-N-((6-(2-hydroxypropan-2-yl)pyridin-2-yl)methyl)pyrimidine-4-carboxamide]
–	–	165 nM	–	Cc1cc(-c2c(OCc3nccn3C3CCOCC3)nc(N)nc2-c2ccc(F)cc2)cc(C(F)F)n1 [Example 172, 5-(2-(difluoromethyl)-6-methylpyridin-4-yl)-4-(4-fluorophenyl)-6-((1-(tetrahydro-2H-pyran-4-yl)-1H-imidazol-2-yl)methoxy)pyrimidin-2-amine]
–	–	–	13	CCc1nnn(C)c1COc1nc(N)nc(-c2ccc(F)cc2)c1-c1cc(C)nc(C(F)F)c1 [Example 200, 5-(2-(difluoromethyl)-6-methylpyridin-4-yl)-4-((4-ethyl-1-methyl-1H-1,2,3-triazol-5-yl)methoxy)-6-(4-fluorophenyl)pyrimidin-2-amine]
–	–	–	306	Cc1cc(-c2c(OCc3nccn3CCC(C)(C)C(=O)O)nc(N)nc2-c2ccc(F)cc2)cc(C(F)F)n1 [Example 216, 4-(2-(((2-amino-5-(2-(dilfluoromethyl)-6-methylpyridin-4-yl)-6-(4-fluorophenyl)pyrimidin-4-yl)oxy)methyl)-1H-imidazol-1-yl)-2,2-dimethylbutanoic acid]
–	–	–	14	Cc1cc(-c2c(OCc3nnn(CC4CC4)n3)nc(N)nc2-c2ccc(F)cc2)cc(C(F)F)n1 [Example 220, 4-((2-(cyclopropylmethyl)-2H-tetrazol-5-yl)methoxy)-5-(2-(difluoromethyl)-6-methylpyridin-4-yl)-6-(4-fluorophenyl)pyrimidin-2-amine]
–	–	–	15	CCn1cnnc1COc1nc(N)nc(-c2ccc(F)cc2)c1-c1cc(C)nc(C(F)F)c1 [Example 222, 5-(2-(difluoromethyl)-6-methylpyridin-4-yl)-4-((4-ethyl-4H-1,2,4-triazol-3-yl)methoxy)-6-(4-fluorophenyl)pyrimidin-2-amine]
